From patent US11345957B2, “Methods of treating glioblastoma in a subject informed by exosomal RNA signatures” (Exosome Diagnostics, Inc., priority 2017, dated 2022)

Test system: patients diagnosed with glioblastoma mutliforme (GBM)
Test: Response of GBM patients to Dacomitinib treatment
Type: in vivo, human
From the text: Serum samples were collected from 14 patients diagnosed with glioblastoma mutliforme (GBM) before the administration of Dacomitinib (pre-treatment samples) and 1 month after the initiation of Dacomitinib treatment (post-treatment samples). Of the 14 patients, 7 were deemed to be “responders” to the drug and stayed on the drug for more than 6 months.

COc1cc2ncnc(Nc3ccc(F)c(Cl)c3)c2cc1NC(=O)/C=C/CN1CCCCC1 [Dacomitinib]
time responders stayed on the drug (7 responders of 14 GBM patients): more than 6 months | patients deemed to be "responders" to the drug (of the 14 patients diagnosed with GBM): 7
